This passage reports IC50 and ED50 results from ChEMBL document CHEMBL1128057, “Aryl-fused sphingolipids as novel PKC inhibitors with topical antiinflammatory activity” (Bioorg Med Chem Lett, 1995).

In general, IC50 refers to the concentration that inhibits the measured activity by half. High values mean weaker potency in that assay, low ones greater potency in that assay.

The target of test [1] is Protein kinase C (PKC). Put plainly: Inhibitory concentration required against Protein kinase C (isolated from rat brain) in PKC assay performed with 4 ug phosphatidyl serine:diacylglycerol (2:1).
The species entered for a further test is Mus musculus. Put plainly: Anti-inflammatory activity on the mice ears using antiinflammatory assay (TPAEE). The format is functional.
Test [2] concerns the target Protein kinase C (PKC). Put plainly: Inhibition of Protein kinase C of rat brain using phosphatidyl serine: di-acyl glycerol (2:1).

SMILES strings stand for the structures. Where only a bound is given, the exact number is not on record here.

On Protein kinase C (PKC) [1], `CCCCCCCCC#Cc1cccc([C@@H](O)[C@@H](N)CO)n1` showed a concentration for half-maximal inhibition (IC50) of 13.3 µM.
In the test listed under Mus musculus, `CCCCCCCCCCC#Cc1ccc([C@@H](O)[C@@H](N)CO)s1` displayed an ED50 of 0.24 mg ear-1. Moreover, the figures for the IC50 on Protein kinase C (PKC) [1] and at Protein kinase C (PKC) [2] were 2.9 µM and 26.2 µM, respectively.
Consider `CCCCCCCCCC#Cc1cccc([C@@H](O)[C@@H](N)CO)n1`, for which the IC50 against Protein kinase C (PKC) [1] stood at 10 µM.
`CCCCCCCCc1cccc([C@@H](O)[C@@H](N)CO)n1`: the IC50 against Protein kinase C (PKC) [1] is more than 100 µM.
For `CCCCCCCC#Cc1ccc([C@@H](O)[C@@H](N)CO)s1`, at Protein kinase C (PKC) [1], the concentration for half-maximal inhibition (IC50) came to 19.9 µM.
As for `CCCCCCCCCCC#Cc1csc([C@@H](O)[C@@H](N)CO)n1`, the IC50 against Protein kinase C (PKC) [2] was 15.2 µM.
In the test listed under Mus musculus, `CCCCCCCCCCC#Cc1csc([C@@H](O)[C@@H](N)CO)c1` registered an ED50 of 0.23 mg ear-1. Moreover, the 50% inhibitory concentration (IC50) against Protein kinase C (PKC) [1] came to 10.8 µM; on Protein kinase C (PKC) [2] it was 23.7 µM.
With `CCCCCCCCCC#Cc1ccc([C@@H](O)[C@@H](N)CO)s1`, the IC50 on Protein kinase C (PKC) [1] was determined as 4.7 µM.
Consider `CCCCCCCCCCCCc1cccc([C@@H](O)[C@@H](N)CO)c1`, for which the IC50 was determined as 3.7 µM at Protein kinase C (PKC) [1] and 17.3 µM against Protein kinase C (PKC) [2].
`CCCCCCCCCCCC(=O)c1cccc([C@@H](O)[C@@H](N)CO)c1` yielded an IC50 at Protein kinase C (PKC) [2] of 20.7 µM.
In the case of `CCCCCCCCCCCc1cccc([C@@H](O)[C@@H](N)CO)n1`, the IC50 against Protein kinase C (PKC) [1] came out at 10 µM.
In turn, `CCCCCCCCCCCCc1csc([C@@H](O)[C@@H](N)CO)c1` showed an IC50 at Protein kinase C (PKC) [2] of 13.3 µM.
In the case of `CCCCCCCCCC/C=C/c1csc([C@@H](O)[C@@H](N)CO)c1`, on Protein kinase C (PKC) [1], the IC50 is 5 µM.
In turn, `CCCCCCCCCCC#Cc1cccc([C@@H](O)[C@@H](N)CO)c1` displayed an ED50 in the test listed under Mus musculus of 0.34 mg ear-1. The IC50 at Protein kinase C (PKC) [1] came to 2.7 µM; against Protein kinase C (PKC) [2] it was 22.2 µM.
Turning to `CCCCCCCCCCCCc1ccc([C@@H](O)[C@@H](N)CO)s1`, the IC50 against Protein kinase C (PKC) [1] came to 14 µM.
Still for that read-out and setting: in the case of `N[C@@H](CO)[C@H](O)c1cccc(C#CCCCCCc2ccccc2)n1` it was 15.9 µM; in that of `N[C@@H](CO)[C@H](O)c1ccc(C#CCCCCc2ccccc2)s1`, 36 µM; in that of `CCCCCCCCCCCCc1cccc([C@@H](O)[C@@H](N)CO)n1`, 10.9 µM.
Molecule `CCCCCCCCCCCOc1cccc([C@@H](O)[C@@H](N)CO)c1` registered an IC50 on Protein kinase C (PKC) [2] of 24.1 µM.
Consider `CCCCCCCCCCCCc1cc([C@@H](O)[C@@H](N)CO)on1`, for which, at Protein kinase C (PKC) [1], the IC50 was determined as 9.1 µM.
On Protein kinase C (PKC) [1], `CCCCCCCCCCCC#Cc1ccc([C@@H](O)[C@@H](N)CO)s1` returned an IC50 of 3.5 µM. This IC50 is about 2.6-fold lower than that of the molecule before.
The same measure, in the same setting: with `CCCCCCCCCC#Cc1cccc([C@@H](O)[C@@H](N)CO)c1` the figure was 9.7 µM.
As for `CCCCCCCCCCCC(=O)c1csc([C@@H](O)[C@@H](N)CO)c1`, the IC50 against Protein kinase C (PKC) [2] is 22.4 µM.
At Protein kinase C (PKC) [1], `CCCCCCCCCCc1cccc([C@@H](O)[C@@H](N)CO)n1` registered a concentration for half-maximal inhibition (IC50) of 30.5 µM.
The same measure, in the same setting: with `CCCCCCCCCCCCCCCCc1cccc([C@@H](O)[C@@H](N)CO)n1` the figure was 4.5 µM.
With `CCCCCCCCCc1ccc([C@@H](O)[C@@H](N)CO)s1`, the IC50 against Protein kinase C (PKC) [1] came out at 10 µM.
In the case of `CCCCCCCCCCC#Cc1cc([C@@H](O)[C@@H](N)CO)cs1`, the IC50 at Protein kinase C (PKC) [2] was found to be 34.5 µM.
`CCCCCCCCCCCCC/C=C/[C@@H](O)[C@@H](N)CO` [SPHINGOSINE] had an ED50 in the test filed under Mus musculus of 0.31 mg ear-1. Moreover, the IC50 against Protein kinase C (PKC) [1] is 6.7 µM; on Protein kinase C (PKC) [2], 23.4 µM.
On to `CCCCCCCCCCCC(=O)c1ccc([C@@H](O)[C@@H](N)CO)s1`, for which the IC50 at Protein kinase C (PKC) [2] is 22.4 µM. That is a double-digit micromolar value.
At Protein kinase C (PKC) [1], `CCCCCCCCCCc1cc([C@@H](O)[C@@H](N)CO)on1` registered an IC50 of 43.9 µM.
